The NIST ThermoML archive (doi:10.1016/j.jct.2005.02.005)
± gives the expanded uncertainty stated by the source.

What was measured:
[1] = Liquid; for mass density: 293.15 K, 101.33 kPa
[2] = refractive index (Na D-line) (dimensionless); settings: 293.15 K; 101.33 kPa; Liquid; Standard Abbe refractometry

Compound | mass density ([1]; Vibrating tube method) [kg/m3] | Normal boiling temperature [1] [°C] | refractive index [2] | mass density [1] [kg/m3]
CCOC(=O)c1ccccc1C(=O)OCC [diethyl phthalate] | 1117.2 ± 0.6 | 298.02 ± 0.1 | 1.5003 ± 0.0008 | 
CCC(=O)O [propanoic acid] |  | 141.0 ± 0.1 | 1.3811 ± 0.0008 | 992.7 ± 0.5
